In general, IC50 refers to the midpoint of a concentration-inhibition curve. The EC50 is the concentration needed to bring the measured effect to its halfway point.

20 compounds from ChEMBL document CHEMBL4219209, “Design, synthesis and biological evaluation of novel tetrahydroisoquinoline derivatives as P-glycoprotein-mediated multidrug resistance inhibitors” (Bioorg Med Chem, 2018) can be followed below.

Test [1] concerns K562. Kind of test: Cytotoxicity against human K562 cells assessed as reduction in cell viability after 48 hrs by MTT assay. The note with it: K562, 48 h. In kind it is cell-based. (In general: Tetrazolium dyes change colour on reduction, which living cells bring about.)
The subject of test [2] is K562/A02. Kind of test: Cytotoxicity against human K562/A02 cells overexpressing P-gp assessed as reduction in cell viability after 48 hrs by MTT assay. In kind it is ADME, cell-based. The note with it: K562/A02, 48 h.
The species entered for test [3] is Homo sapiens. Kind of test: Inhibition of P-gp in human K562/A02 cells assessed as potentiation of adriamycin-induced cytotoxicity by measuring fold reduction in adriamycin IC50 at 5 uM after 48 hrs by MTT assay relative to adriamycin alone. Format: cell-based.
The species named for test [4] is Homo sapiens. The test is described as follows: Inhibition of P-gp in human K562/A02 cells assessed as potentiation of adriamycin-induced cytotoxicity by measuring fold reduction in adriamycin IC50 at 2.5 uM after 48 hrs by MTT assay relative to adriamycin alone. In kind it is cell-based.
For test [5], the species on record is Homo sapiens. The test is described as follows: Inhibition of P-gp in human K562/A02 cells assessed as potentiation of adriamycin-induced cytotoxicity by measuring fold reduction in adriamycin IC50 at 1 uM after 48 hrs by MTT assay relative to adriamycin alone. Format: cell-based.
The species entered for test [6] is Homo sapiens. Kind of test: Inhibition of P-gp in human K562/A02 cells assessed as potentiation of adriamycin-induced cytotoxicity by measuring fold reduction in adriamycin IC50 at 0.5 uM after 48 hrs by MTT assay relative to adriamycin alone. Format: cell-based.
For test [7], the species on record is Homo sapiens. Kind of test: Inhibition of P-gp in human K562/A02 cells assessed as potentiation of adriamycin-induced cytotoxicity by measuring fold reduction in adriamycin IC50 at 0.25 uM after 48 hrs by MTT assay relative to adriamycin alone. Format: cell-based.
Test [8] is filed under the species Homo sapiens. The test is described as follows: Inhibition of P-gp in human K562/A02 cells assessed as potentiation of adriamycin-induced cytotoxicity by measuring fold reduction in adriamycin IC50 at 0.1 uM after 48 hrs by MTT assay relative to adriamycin alone. In kind it is cell-based.
Test [9] is filed under the species Homo sapiens. The test is described as follows: Inhibition of P-gp in human K562/A02 cells assessed as potentiation of adriamycin-induced cytotoxicity by measuring fold reduction in adriamycin IC50 at 0.05 uM after 48 hrs by MTT assay relative to adriamycin alone. In kind it is cell-based.
For test [10], the species on record is Homo sapiens. The test is described as follows: Inhibition of P-gp in human K562/A02 cells assessed as potentiation of adriamycin-induced cytotoxicity by measuring fold reduction in adriamycin IC50 at 0.025 uM after 48 hrs by MTT assay relative to adriamycin alone. In kind it is cell-based.
Test [11] can be described thus: (§1) Inhibition of P-gp in human K562/A02 cells assessed as potentiation of adriamycin-induced cytotoxicity after 48 hrs by MTT assay. In kind it is cell-based. As to conditions: K562/A02, 48 h.
Test [12] is filed under the species Homo sapiens. Described as §1. Format: cell-based.
The species entered for test [13] is Homo sapiens. Kind of test: Inhibition of P-gp in human K562/A02 cells assessed as potentiation of adriamycin-induced cytotoxicity by measuring fold reduction in adriamycin IC50 at 5 uM preincubated for 24 hrs followed by compound wash out and subsequent addition of adriamycin measured after 48 hrs by MTT assay relative to adriamycin alone. In kind it is cell-based.

The species named for test [14] is Homo sapiens. Kind of test: Inhibition of P-gp in human K562/A02 cells assessed as potentiation of adriamycin-induced cytotoxicity by measuring fold reduction in adriamycin IC50 at 5 uM preincubated for 24 hrs followed by compound wash out and subsequent addition of adriamycin after 6 hrs measured after 48 hrs by MTT assay relative to adriamycin alone. Format: cell-based.

Test [15] is filed under the species Homo sapiens. Kind of test: Inhibition of P-gp in human K562/A02 cells assessed as potentiation of adriamycin-induced cytotoxicity by measuring fold reduction in adriamycin IC50 at 5 uM preincubated for 24 hrs followed by compound wash out and subsequent addition of adriamycin after 12 hrs measured after 48 hrs by MTT assay relative to adriamycin alone. Format: cell-based.

For test [16], the species on record is Homo sapiens. Kind of test: Inhibition of P-gp in human K562/A02 cells assessed as potentiation of adriamycin-induced cytotoxicity by measuring fold reduction in adriamycin IC50 at 5 uM preincubated for 24 hrs followed by compound wash out and subsequent addition of adriamycin after 24 hrs measured after 48 hrs by MTT assay relative to adriamycin alone. In kind it is cell-based.

The species entered for test [17] is Homo sapiens. The test is described as follows: Inhibition of P-gp in human K562/A02 cells assessed as potentiation of adriamycin-induced cytotoxicity by measuring fold reduction in adriamycin IC50 at 5 uM preincubated for 24 hrs followed by adriamycin addition measured after 48 hrs by MTT assay relative to adriamycin alone. In kind it is cell-based.
Test [18] concerns K562/A02. The test is described as follows: Inhibition of P-gp in human K562/A02 cells assessed as increase in adriamycin accumulation after 2.5 hrs by flow cytometry method. Format: cell-based. For orientation: A flow cytometer gives signals particle by particle.
Test [19] concerns K562. The test is described as follows: Inhibition of P-gp in human K562 cells assessed as increase in Rh123 accumulation at 5 uM after 2.5 hrs by flow cytometry method. Format: cell-based.
Test [20] has as its system K562. Kind of test: Inhibition of P-gp in human K562 cells assessed as Rh123 efflux at 5 uM after 90 mins by fluorospectro photometric analysis (reference value: >70%). Format: cell-based. On the set-up: scale not given: the % may be the effect or the level left.
Test [21] relates to K562/A02. As to conditions: Homo sapiens, 5 uM.
Description: Inhibition of P-gp in human K562/A02 cells assessed as increase in adriamycin accumulation at 5 uM after 2.5 hrs by flow cytometry method

Counter-ions that a name gives are not always drawn. Calls of active or inactive are those of the source. No cut-off for these calls is given here.

`COc1cc2c(cc1OC)CN(CCn1cc(CNc3ccccc3C(=O)NCCc3ccccc3)nn1)CC2`: the IC50 is 42.2 µM in the test with K562 [1] and greater than 100 µM in the test with K562/A02 [2] (read-out: IC50). Moreover, the Ratio IC50 in the test listed under Homo sapiens [3] worked out at 4.3.
Regarding `COc1ccc(CCNC(=O)c2ccccc2NCc2cn(CCN3CCc4cc(OC)c(OC)cc4C3)nn2)cc1OC`, the IC50 in the test on K562 [1] is 61.1 µM; in the test on K562/A02 [2] (read-out: IC50), greater than 100 µM. Further, in the test listed under Homo sapiens [3], the Ratio IC50 came out at 1.2.
For the compound `COc1cc2c(cc1OC)CN(CCn1cc(CNc3ccccc3C(=O)Nc3ccc(C(C)(C)C)cc3)nn1)CC2`, the IC50 in the test with K562 [1] is 45.4 µM; in the test with K562/A02 [2] (read-out: IC50), greater than 100 µM. Also, the Ratio IC50 in the test listed under Homo sapiens [4] was 13.1; in the test filed under Homo sapiens [3] it was 34.2 to 39; in the test listed under Homo sapiens [5], 7.3; in the test filed under Homo sapiens [6], 3.8; in the test listed under Homo sapiens [7], 2.3; in the test listed under Homo sapiens [8] it was 1.3. The Ratio IC50 in the test listed under Homo sapiens [9] was 1.2; in the test listed under Homo sapiens [10] it was 1.2; in the test filed under Homo sapiens [13] it was 11.6; in the test listed under Homo sapiens [14] it was 8.1; in the test filed under Homo sapiens [15], 5; in the test filed under Homo sapiens [16] it was 3. Also, the Ratio IC50 in the test listed under Homo sapiens [17] was found to be 40.7. Also, the EC50 in test [11] was determined as 0.253 µM. Moreover, the inhibition result in the test filed under Homo sapiens [12] and in the test on K562/A02 [18] was “Dose-dependent effect” in each case. Also, in the test on K562 [19], the inhibition entry was “Active”. Besides, the Activity with K562 [20] is less than 40%.
`COc1cc2c(cc1OC)CN(CCn1cc(CNc3ccccc3C(=O)Nc3ccccc3)nn1)CC2`: the IC50 was 34.3 µM in the test on K562 [1] and greater than 100 µM in the test on K562/A02 [2] (read-out: IC50). Also, the Ratio IC50 in the test filed under Homo sapiens [3] stood at 2.1.
As for `COc1ccc(CCN(C)CCCC(C#N)(c2ccc(OC)c(OC)c2)C(C)C)cc1OC` (stereo unspecified) [VERAPAMIL], the results for the IC50 with K562 [1] and in the test on K562/A02 [2] were 82.2 µM and 67.2 µM, respectively. Also, the figures for the Ratio IC50 in the test filed under Homo sapiens [3] and in the test filed under Homo sapiens [17] were 3.3 and 4.8, respectively. Further, the inhibition entry in the test with K562 [19] and in the test on K562/A02 [21] was “Active” in each case.
Regarding `COc1cc2c(cc1OC)CN(CCn1cc(CNc3ccccc3C(=O)Nc3ccc4c(c3)OCO4)nn1)CC2`, the values for the IC50 in the test on K562 [1] and in the test on K562/A02 [2] (read-out: IC50) were 41.5 µM and greater than 100 µM, respectively. In the test filed under Homo sapiens [3], the Ratio IC50 came out at 4.6.
For the compound `COc1cc2c(cc1OC)CN(CCn1cc(CNc3ccccc3C(=O)Nc3ccc(Cl)cc3)nn1)CC2`, the values for the IC50 in the test with K562 [1] and in the test on K562/A02 [2] (read-out: IC50) were 43.4 µM and greater than 100 µM, respectively. Moreover, in the test filed under Homo sapiens [3], the Ratio IC50 is 2.6.
Turning to `COc1cccc2c1C(=O)c1c(O)c3c(c(O)c1C2=O)C[C@@](O)(C(=O)CO)C[C@@H]3O[C@H]1C[C@H](N)[C@H](O)[C@H](C)O1` [DOXORUBICIN HYDROCHLORIDE], the IC50 with K562 [1] came to 0.97 µM; in the test on K562/A02 [2] (read-out: IC50), 65.6 µM.
`CCCCc1ccc(NC(=O)c2ccccc2NCc2cn(CCN3CCc4cc(OC)c(OC)cc4C3)nn2)cc1`: the figures for the IC50 with K562 [1] and with K562/A02 [2] (read-out: IC50) were 75.7 µM and greater than 100 µM, respectively. In addition, the Ratio IC50 in the test listed under Homo sapiens [3] was found to be 15.5.
On to `COc1cc2c(cc1OC)CN(CCn1cc(CNc3ccccc3C(=O)NCc3ccccc3)nn1)CC2`, for which the values for the IC50 with K562 [1] and in the test on K562/A02 [2] (read-out: IC50) were 49.6 µM and greater than 100 µM, respectively. In addition, the Ratio IC50 in the test listed under Homo sapiens [3] amounted to 4.5.
Turning to `COc1cc2c(cc1OC)CN(CCn1cc(CNc3ccccc3C(=O)Nc3ccc(F)c(F)c3)nn1)CC2`, the IC50 in the test with K562 [1] is 87.9 µM; with K562/A02 [2] (read-out: IC50) it was greater than 100 µM. Further, the Ratio IC50 in the test listed under Homo sapiens [3] was found to be 3.7.
With `COc1cc2c(cc1OC)CN(CCn1cc(CNc3ccccc3C(=O)Nc3ccc([N+](=O)[O-])cc3)nn1)CC2`, the IC50 in the test on K562 [1] is 43.8 µM; in the test with K562/A02 [2] (read-out: IC50), greater than 100 µM. Further, in the test listed under Homo sapiens [3], the Ratio IC50 worked out at 2.6.
With `COc1cc2c(cc1OC)CN(CCc1ccc(NC(=O)c3cc(OC)c(OC)cc3NC(=O)c3cnc4ccccc4c3)cc1)CC2`, the Ratio IC50 is 49.4 in the test listed under Homo sapiens [3]; 17 in the test listed under Homo sapiens [13]; 10.3 in the test filed under Homo sapiens [14]; 6.2 in the test listed under Homo sapiens [15]; 3.6 in the test filed under Homo sapiens [16]; 32.1 in the test filed under Homo sapiens [17].
For `COc1ccc(NC(=O)c2ccccc2NCc2cn(CCN3CCc4cc(OC)c(OC)cc4C3)nn2)cc1OC`, the IC50 is 60.5 µM in the test on K562 [1] and greater than 100 µM with K562/A02 [2] (read-out: IC50). For the same compound, in the test listed under Homo sapiens [3], the Ratio IC50 came to 1.3.
For `COc1ccc(NC(=O)c2ccccc2NCc2cn(CCN3CCc4cc(OC)c(OC)cc4C3)nn2)cc1`, the IC50 in the test with K562 [1] was 58.4 µM; in the test with K562/A02 [2] (read-out: IC50) it was greater than 100 µM.
For `COc1cc2c(cc1OC)CN(CCn1cc(CNc3ccccc3C(=O)Nc3cc(OC)c(OC)c(OC)c3)nn1)CC2`, the IC50 in the test on K562 [1] is 43.1 µM; in the test on K562/A02 [2] (read-out: IC50) it was greater than 100 µM. Further, the Ratio IC50 in the test listed under Homo sapiens [3] worked out at 1.3.
The corresponding values for `COc1cc2c(cc1OC)CN(CCn1cc(CNc3ccccc3C(=O)Nc3ccc(F)cc3)nn1)CC2` are 61 µM, greater than 100 µM and 3.7.
On the same counts, the results for `COc1cc2c(cc1OC)CN(CCn1cc(CNc3ccccc3C(=O)NC3CCOCC3)nn1)CC2` are 59.2 µM, greater than 100 µM and 8.2.
On the same counts, the results for `COc1cc2c(cc1OC)CN(CCn1cc(CNc3ccccc3C(=O)Nc3ccc(OC(F)(F)F)cc3)nn1)CC2` are 90.2 µM, greater than 100 µM and 21.4.
In the case of `COc1cc2c(cc1OC)CN(CCn1cc(CNc3ccccc3C(=O)NCC(C)C)nn1)CC2`, the IC50 was 61.5 µM in the test on K562 [1] and greater than 100 µM with K562/A02 [2] (read-out: IC50). Also, the Ratio IC50 in the test filed under Homo sapiens [3] came out at 1.7.
